Experimental findings from US20240199558A1, “2,4,6-TRISUBSTITUTED 1,3,5-TRIAZINES AS MODULATORS OF CX3CR1” (ASTRAZENECA AB, priority 2022, published 2024) are described below.

For this assay, the target named is CX3CR1 (Homo sapiens (Human), UniProt P49238). The assay is described as follows: hCX3CR1 [3H]-AZD8797 competitive binding assay (filter). The note with it: CHO-hCX3CR1 membranes, 2 nM [3H]-AZD8797. The method, then: hCX3CR1 [^3H]-AZD8797 Competitive Binding Assay (Filter)
Sequence of CX3CR1 (P49238 whole entry): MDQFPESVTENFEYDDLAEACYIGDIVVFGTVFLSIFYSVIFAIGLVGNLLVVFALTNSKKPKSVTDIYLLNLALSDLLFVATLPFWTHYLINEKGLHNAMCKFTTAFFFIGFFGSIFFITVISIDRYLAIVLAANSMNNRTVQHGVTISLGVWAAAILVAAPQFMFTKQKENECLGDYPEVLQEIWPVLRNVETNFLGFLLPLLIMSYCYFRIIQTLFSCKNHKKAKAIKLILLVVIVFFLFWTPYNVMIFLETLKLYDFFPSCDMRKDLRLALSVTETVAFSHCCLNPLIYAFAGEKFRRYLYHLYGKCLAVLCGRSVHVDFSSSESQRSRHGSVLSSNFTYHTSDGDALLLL
CHO-hCX3CR1 membranes (9 μg per well) together with 2 nM [^3H]-AZD8797 and different concentrations of competitor compound were incubated in 25 mM HEPES (pH 7.4), 10 mM MgCl2, 1 mM CaCl2) and 0.5% BSA in a Corning polystyrene flat-bottom 96-well plate. The plate was incubated for 2 h at room temperature before free radioligand was separated from bound by vacuum filtration on to a Multiscreen HTS+HiFlow FB (Millipore) filter plate, using a Biomek FX (Beckman Coulter). The filter plate was washed in ice-cold 25 mM HEPES (pH 7.4), 5 mM MgCl2, 1 mM CaCl2) and 500 mM NaCl and dried at 50° C. for 1 h. Scintillation cocktail, Optiphase Supermix (PerkinElmer) was added to each well and the radioactivity was measured using a MicroBeta Trilux reader (PerkinElmer). The DMSO concentration was held constant at 1%.
`CC(C)C[C@H](CO)Nc1nc(CC(C)c2cccc(Cl)c2)nc(NS(C)(=O)=O)n1` (stereo partly drawn) [Example 72, N-(4-(2-(3-Chlorophenyl)propyl)-6-(((R)-1-hydroxy-4-methylpentan-2-yl)amino)-1,3,5-triazin-2-yl)methanesulfonamide] showed an IC50 of 340 nM. With `CC(C)C[C@H](CO)Nc1nc(C[C@@H](C)c2ccc(F)c(Cl)c2)nc(NS(C)(=O)=O)n1` (single isomer, unassigned) [Example 66, N-(4-((R*)-2-(3-Chloro-4-fluorophenyl)propyl)-6-(((R)-1-hydroxy-4-methylpentan-2-yl)amino)-1,3,5-triazin-2-yl)methanesulfonamide], the IC50 is 222 nM.

`CC(C)C[C@H](CO)Nc1nc(CC(C)c2ccc(N)c(F)c2)nc(NS(C)(=O)=O)n1` (stereo partly drawn) [Example 136, N-(4-(2-(4-Amino-3-fluorophenyl)propyl)-6-(((R)-1-hydroxy-4-methylpentan-2-yl)amino)-1,3,5-triazin-2-yl)methanesulfonamide] displayed an IC50 of 16 nM. Against the preceding compound, the IC50 is about 14-fold lower.

In turn, `COc1cc(F)ccc1C(C)Cc1nc(N[C@@H](CO)CC(C)C)nc(NS(C)(=O)=O)n1` (stereo partly drawn) [Example 162, N-(4-(2-(4-Fluoro-2-methoxyphenyl)propyl)-6-(((R)-1-hydroxy-4-methylpentan-2-yl)amino)-1,3,5-triazin-2-yl)methanesulfonamide] registered an IC50 of 1320 nM. Compound `CC(C)C[C@H](CO)Nc1nc(CC(C)c2cccc3cccnc23)nc(NS(C)(=O)=O)n1` (stereo partly drawn) [Example 103, N-(4-(((R)-1-Hydroxy-4-methylpentan-2-yl)amino)-6-(2-(quinolin-8-yl)propyl)-1,3,5-triazin-2-yl)methanesulfonamide] had an IC50 of 17 nM. This IC50 lies about 78-fold lower than the previous one. For `CC(C)C[C@H](CO)Nc1nc(C[C@@H](C)c2cc(Cl)ccc2F)nc(NS(C)(=O)=O)n1` (single isomer, unassigned) [Example 30, N-(4-((R*)-2-(5-Chloro-2-fluorophenyl)propyl)-6-(((R)-1-hydroxy-4-methylpentan-2-yl)amino)-1,3,5-triazin-2-yl)methanesulfonamide], the half-maximal inhibitory concentration (IC50) is 148 nM. Against the preceding compound, the IC50 is about 8.7-fold higher. In the case of `COc1cccc(C(C)Cc2nc(N[C@@H](CO)CC(C)C)nc(NS(C)(=O)=O)n2)n1` (stereo partly drawn) [Example 166, N-(4-(((R)-1-Hydroxy-4-methylpentan-2-yl)amino)-6-(2-(6-methoxypyridin-2-yl)propyl)-1,3,5-triazin-2-yl)methanesulfonamide] it was 726 nM; in that of `CC(C)C[C@H](CO)Nc1nc(C[C@H](C)c2c(F)cc(F)cc2F)nc(NS(C)(=O)=O)n1` (single isomer, unassigned) [Example 39, N-(4-(((R)-1-Hydroxy-4-methylpentan-2-yl)amino)-6-((S*)-2-(2,4,6-trifluorophenyl)propyl)-1,3,5-triazin-2-yl)methanesulfonamide], > 10000 nM; in that of `CC(C)C[C@H](CO)Nc1nc(CC(C)c2cnc3c(ccn3C)c2)nc(NS(C)(=O)=O)n1` (stereo partly drawn) [Example 117, N-(4-(((R)-1-Hydroxy-4-methylpentan-2-yl)amino)-6-(2-(1-methyl-1H-pyrrolo[2,3-b]pyridin-5-yl)propyl)-1,3,5-triazin-2-yl)methanesulfonamide], 78 nM. As for `CC(C)C[C@H](CO)Nc1nc(C[C@H](C)c2ccnc(F)c2)nc(NS(C)(=O)=O)n1` (single isomer, unassigned) [Example 90, N-(4-((S*)-2-(2-Fluoropyridin-4-yl)propyl)-6-(((R)-1-hydroxy-4-methylpentan-2-yl)amino)-1,3,5-triazin-2-yl)methanesulfonamide], the figure is 1700 nM; as for `CC(C)C[C@H](CO)Nc1nc(CC(C)c2ccc(C#N)c(Cl)c2)nc(NS(C)(=O)=O)n1` (stereo partly drawn) [Example 169, N-(4-(2-(3-Chloro-4-cyanophenyl)propyl)-6-(((R)-1-hydroxy-4-methylpentan-2-yl)amino)-1,3,5-triazin-2-yl)methanesulfonamide], 815 nM; as for `CC(C)C[C@H](CO)Nc1nc(CC(C)c2ccc3[nH]ccc3c2)nc(NS(C)(=O)=O)n1` (stereo partly drawn) [Example 60, N-(4-(2-(1H-Indol-5-yl)propyl)-6-(((R)-1-hydroxy-4-methylpentan-2-yl)amino)-1,3,5-triazin-2-yl)methanesulfonamide], 102 nM. For the compound `Cc1cc(C(C)Cc2nc(N[C@@H](CO)CC(C)C)nc(NS(C)(=O)=O)n2)ccn1` (stereo partly drawn) [Example 94, N-(4-(((R)-1-Hydroxy-4-methylpentan-2-yl)amino)-6-(2-(2-methylpyridin-4-yl)propyl)-1,3,5-triazin-2-yl)methanesulfonamide], the IC50 is 102 nM. On to `CC(C)C[C@H](CO)Nc1nc(CC(C)c2ccc(N)cc2)nc(NS(C)(=O)=O)n1` (stereo partly drawn) [Example 112, N-(4-(2-(4-Aminophenyl)propyl)-6-(((R)-1-hydroxy-4-methylpentan-2-yl)amino)-1,3,5-triazin-2-yl)methanesulfonamide], for which the IC50 is 29 nM. With `CC(C)C[C@H](CO)Nc1nc(CC(C)c2ccc(CO)c(F)c2)nc(NS(C)(=O)=O)n1` (stereo partly drawn) [Example 133, N-(4-(2-(3-Fluoro-4-(hydroxymethyl)phenyl)propyl)-6-(((R)-1-hydroxy-4-methylpentan-2-yl)amino)-1,3,5-triazin-2-yl)methanesulfonamide], the IC50 was found to be 26 nM. Regarding `Cc1ccc(C(C)Cc2nc(N[C@@H](CO)CC(C)C)nc(NS(C)(=O)=O)n2)cc1N` (stereo partly drawn) [Example 114, N-(4-(2-(3-Amino-4-methylphenyl)propyl)-6-(((R)-1-hydroxy-4-methylpentan-2-yl)amino)-1,3,5-triazin-2-yl)methanesulfonamide], the IC50 worked out at 45 nM. As for `CC(C)C[C@H](CO)Nc1nc(CC(C)c2ccc(C#N)cc2)nc(NS(C)(=O)=O)n1` (single isomer, unassigned) [Example 165, N-(4-((R*)-2-(4-Cyanophenyl)propyl)-6-(((R)-1-hydroxy-4-methylpentan-2-yl)amino)-1,3,5-triazin-2-yl)methanesulfonamide], the figure is 283 nM. `CC(C)C[C@H](CO)Nc1nc(CC(C)c2ccc(F)cc2O)nc(NS(C)(=O)=O)n1` (stereo partly drawn) [Example 142, N-(4-(2-(4-Fluoro-2-hydroxyphenyl)propyl)-6-(((R)-1-hydroxy-4-methylpentan-2-yl)amino)-1,3,5-triazin-2-yl)methanesulfonamide] gave an IC50 of 110 nM. Compared with the last compound, the IC50 is about 2.6-fold lower. For `CC(C)C[C@H](CO)Nc1nc(C[C@H](C)c2c(F)ccc(F)c2F)nc(NS(C)(=O)=O)n1` (single isomer, unassigned) [Example 41, N-(4-(((R)-1-Hydroxy-4-methylpentan-2-yl)amino)-6-((S*)-2-(2,3,6-trifluorophenyl)propyl)-1,3,5-triazin-2-yl)methanesulfonamide], the IC50 is > 10000 nM. In the case of `CCOc1ccc([C@H](C)Cc2nc(N[C@@H](CO)CC(C)C)nc(NS(C)(=O)=O)n2)cn1` (single isomer, unassigned) [Example 27, N-(4-((R*)-2-(6-Ethoxypyridin-3-yl)propyl)-6-(((R)-1-hydroxy-4-methylpentan-2-yl)amino)-1,3,5-triazin-2-yl)methanesulfonamide] it was 138 nM; in that of `CC(C)C[C@H](CO)Nc1nc(CC(C)c2ccc3c(c2)CN(C)C(=O)C3)nc(NS(C)(=O)=O)n1` (stereo partly drawn) [Example 130, N-(4-(((R)-1-Hydroxy-4-methylpentan-2-yl)amino)-6-(2-(2-methyl-3-oxo-1,2,3,4-tetrahydroisoquinolin-7-yl)propyl)-1,3,5-triazin-2-yl)methanesulfonamide], 79 nM; in that of `CC(C)C[C@H](CO)Nc1nc(C[C@H](C)c2cc(F)c(F)cc2F)nc(NS(C)(=O)=O)n1` (single isomer, unassigned) [Example 35, N-(4-(((R)-1-Hydroxy-4-methylpentan-2-yl)amino)-6-((S*)-2-(2,4,5-trifluorophenyl)propyl)-1,3,5-triazin-2-yl)methanesulfonamide], 2530 nM. With `CC(C)C[C@H](CO)Nc1nc(CC(C)c2cccc(Cl)c2O)nc(NS(C)(=O)=O)n1` (stereo partly drawn) [Example 137, N-(4-(2-(3-Chloro-2-hydroxyphenyl)propyl)-6-(((R)-1-hydroxy-4-methylpentan-2-yl)amino)-1,3,5-triazin-2-yl)methanesulfonamide], the IC50 worked out at 321 nM. For the compound `CC(C)C[C@H](CO)Nc1nc(CC(C)c2cc(Cl)ccc2O)nc(NS(C)(=O)=O)n1` (stereo partly drawn) [Example 107, N-(4-(2-(5-Chloro-2-hydroxyphenyl)propyl)-6-(((R)-1-hydroxy-4-methylpentan-2-yl)amino)-1,3,5-triazin-2-yl)methanesulfonamide], the IC50 came out at 113 nM. `CC(C)C[C@H](CO)Nc1nc(CC(C)c2cccc3c2NC(=O)C3)nc(NS(C)(=O)=O)n1` (stereo partly drawn) [Example 163, N-(4-(((R)-1-Hydroxy-4-methylpentan-2-yl)amino)-6-(2-(2-oxoindolin-7-yl)propyl)-1,3,5-triazin-2-yl)methanesulfonamide] displayed an IC50 of 5230 nM. Take `CC(C)C[C@H](CO)Nc1nc(CC(C)c2ccc(C(F)(F)F)cc2)nc(NS(C)(=O)=O)n1` (stereo partly drawn) [Example 74, N-(4-(((R)-1-Hydroxy-4-methylpentan-2-yl)amino)-6-(2-(4-(trifluoromethyl)phenyl)propyl)-1,3,5-triazin-2-yl)methanesulfonamide]: the IC50 was determined as 925 nM. This IC50 lies about 5.7-fold lower than the previous one. The compound `CC[C@H](Cc1nc(N[C@@H](CO)CC(C)C)nc(NS(C)(=O)=O)n1)c1cccc(F)c1F` (single isomer, unassigned) [Example 47, N-(4-((R*)-2-(2,3-Difluorophenyl)butyl)-6-(((R)-1-hydroxy-4-methylpentan-2-yl)amino)-1,3,5-triazin-2-yl)methanesulfonamide] returned an IC50 of 63 nM.
